Results: US20120077705A1, “Methods for Identifying Autophagy Inducing Compounds” (President and Fellows of Harvard College, priority 2007, published 2012)
“And” between values parts separate entries of the source, which are not always exact repeats. Identical values can stand only once. Like-named read-outs stand apart in the source and are kept apart here. Non-standard residues stand in square brackets, D forms with d. Residues, ends and D or L forms follow the SMILES beside them. Nle = CCCC[C@H](N)C(=O)O

Legend:
Type in all cases: cell-based
FYVE-RFP = assay: High-content analysis of FYVE-RFP fluorescence (PI(3)P level) in H4-FYVE cell line
From the text: Class III PI(3)K Vps34 is a multifunctional protein. On the one hand, it catalyzes the phosphorylation of PI to generate PI(3)P and is of key importance in the endocytic and autophagosome membrane transport processes. At the same time, a compound formed from Vps34/beclin1 is involved in the regulation of autophagy initiation signaling. Therefore, while the autophagy process is taking place, the level of PtdIns(3)P should not be expected to decrease to a significant extent. A FYVE domain is a protein structure domain composed of approximately 70 amino acid residues and containing a zinc finger protein structure; it can bind specifically with PI(3)P. Generally, PI(3)P recruits proteins containing a FYVE domain in order to bind to the membrane of cellular organelles, and participate in protein trafficking and similar processes.
H4 cells were transfected with the fusion protein FYVP-red fluorescent protein (FYVE-RFP). After transfection, the cells were screened in order to obtain a suitable H4-FYVE cell line to be used as a screening platform to perform high-volume screening of compounds, which thereby indirectly reflected the effect of the compound on autophagy. Compounds which reduced FYVE-RFP fluorescence intensity were eliminated. In this experiment, change in the intensity, fluorescence and distribution of the protein marker FYVE-RFP recruited by PI(3)P before and after treatment with the potential autophagy inducing compound was assayed by high-content microscopic analysis.
DMSO was used to dilute, dissolve, and prepare a compound at different concentrations with each concentration repeated three times. A 96-well plate was inoculated with H4-FYVE cells at an appropriate density and treated with the compound for 2, 4, and 8 hours, respectively. […] If a compound affected FYVE expression or distribution, then this would be embodied precisely in the image and in the size and intensity of fluorescent spots and other numerical values.

GFP-polyQ-HA = assay: Degradation of expanded polyglutamine (GFP-polyQ-HA) in transfected H4 cells, anti-HA blot
Experimental: Large-scale accumulation of misfolded protein is a prominent feature of many neurodegenerative diseases. For example, the pathogenic mechanism of Huntington's disease is that a large amount of polyglutamine (polyQ) protein accumulates in the neurons and cannot be cleared away. Tests of polyQ elimination and degradation were used in this experiment to further determine the ability if the tested compounds to induce autophagy.
The compounds selected through screening were dissolved in DMSO and diluted in a stepwise manner in complete culture medium.

LC3 II = assay: Western blot of LC3 II in H4-LC cells
From the text: The autophagosome marker LC3 used in the compound-screening platform was subjected to the foregoing processing in the cytosol. Generally when the new LC3 synthesized within the cell was processed, it became cytosolic soluble LC3 I with molecular weight 18 Kd. […] The quantity of LC3 II content reflects to a certain degree the autophagic activity of a cell. Therefore, by assaying the content of LC3 II in the cell by means of the Western blot method, it is possible to further reflect the effect of the compound on autophagy.
H4-LC cells at an appropriate density were inoculated onto a 6-well plate, which was treated with a compound for 4 hours, after which the cells were collected and lysed. The protein fraction was harvested and SDS-PAGE was performed. Following electrophoresis separation the proteins were transferred to a membrane, and immunoblot analysis was performed. The cytoskeleton protein, actin, was used as an internal control.

long-lived proteins = assay: Degradation of (3H) L-leucine labelled long-lived proteins in H4 cells; conditions: relative to blank control
From the text: The process of autophagy is a protein degradation process, which primarily mediates the degradation of cellular organelles and long-lived proteins within the cell. Therefore, in the present experiment the detection of whether a compound promotes the degradation of long-lived proteins within the cell was used as an additional indicator of whether the tested compound induces autophagy.
DMSO was used to dilute, dissolve, and prepare a compound at different concentrations with each concentration repeated three times. A 96-well plate was inoculated with H4 cells at an appropriate density and treated with the compound for 2, 4, and 24 hours, respectively. […] One day prior to the experiment, cells were inoculated onto a 12-well plate at an appropriate density and cultured under normal conditions (DMEM +10% fetal calf serum). […] Then, a complete medium containing (3H) L-leucine was used to incubate the cells for 24 hours causing the cells to take in isotope-labeled leucine and undertake protein synthesis. After 24 hours, a complete culture medium was substituted and used to incubate the cells for 24 hours to degrade short-lived proteins. After the short-lived proteins had been degraded, a complete culture medium to which the compound had been added was substituted and used to incubate the cells. The radiation intensity of the culture medium was tested at 0, 1, 2, 4, and 24 hours, respectively. At 24 hours, the cells were collected and the intensity of the isotope within the cells was tested, and the percent of long-lived protein degradation relative to the blank control group at different times after the action of the compound was computed. Compounds that increased the degradation of long-lived proteins were selected by means oft-test.

[1] = H4-LC cells, 4 hours, immunoblot, FIG. 1
[2] = H4 cells transfected with GFP-polyQ-HA, 24 hours, screening concentration and dilutions 1:2.5, 1:5, 1:10, FIG. 2

SMILES	Relative fluorescent intensity of FYVE-RFP (%) (FYVE-RFP; H4-FYVE cells, 2 h)	Relative fluorescent intensity of FYVE-RFP (%) (FYVE-RFP; H4-FYVE cells, 4 h)	Relative fluorescent intensity of FYVE-RFP (%) (FYVE-RFP; H4-FYVE cells, 8 h)	also measured
CN(C)C[C@H](O)Cn1c2ccc(Br)cc2c2cc(Br)ccc21 (racemic) [Wiskostatin]	267.90 ± 6.16	240.08 ± 4.26	131.93 ± 11.05	–
CN(CCc1ccc(Cl)c(Cl)c1)CC(O)COc1ccc(NS(C)(=O)=O)cc1 (stereo not shown) [AM 92016]	68.06 ± 1.20	71.97 ± 15.67	66.35 ± 17.66	–
CCCC[C@@H](C=O)NC(=O)[C@H](CC(C)C)NC(=O)[C@H](CC(C)C)NC(C)=O [Ac-Leu-Leu-Nle-CHO] (Ac-Leu-Leu-[Nle]-aldehyde)	72.86 ± 10.18	84.85 ± 2.83	88.42 ± 6.29	–
CCCCc1oc2ccccc2c1C(=O)c1cc(I)c(OCCN(CC)CC)c(I)c1.Cl [Amiodarone]	–	–	–	polyQ degradation (GFP-polyQ-HA): increased polyQ degradation; Increase of endogenous LC3 II / LC3 II/LC3 I percentage (LC3 II; [1]): increase of endogenous LC3 II; Percent relative degradation of long-lived proteins (%) (long-lived proteins; 1 h): 101.32 ± 5.95%; Percent relative degradation of long-lived proteins (%) (long-lived proteins; 2 h): 122.42 ± 9.71%; Percent relative degradation of long-lived proteins (%) (long-lived proteins; 4 h): 110.75 ± 3.68%; Percent relative degradation of long-lived proteins (%) (long-lived proteins; 24 h): 116.73 ± 5.54%; Relative fluorescent intensity of FYVE-RFP (%) (FYVE-RFP): 92.50 ± 5.51% and 89.23 ± 3.47% and 83.45 ± 3.64%
COC(=O)C1=C(C)NC(C)=C([N+](=O)[O-])C1c1ccccc1C(F)(F)F (stereo not shown) [Bay K-8644]	110.18 ± 25.18	57.79 ± 3.76	79.70 ± 7.28	–
CCCNC(=O)[C@H]1O[C@@H]1C(=O)N[C@H](C(=O)N1CCC[C@H]1C(=O)OC)[C@@H](C)CC [CA-074-Me]	65.94 ± 12.73	79.82 ± 4.66	86.43 ± 4.15	–
O=C(/C=C/c1ccc(O)c(O)c1)OCCc1ccccc1 [CAPE]	86.89 ± 20.98	71.17 ± 18.70	69.14 ± 4.32	–
CN1CCN(C2=Nc3cc(Cl)ccc3Nc3ccccc32)CC1 [Clozapine]	64.04 ± 2.94	74.79 ± 13.43	78.38 ± 1.35	–
CC1=C2C[C@H]3[C@@H](CC=C4C[C@@H](O)CC[C@@]43C)[C@@H]2CC[C@]12O[C@@H]1C[C@H](C)CN[C@H]1[C@H]2C [Cyclopamine]	108.75 ± 12.44	75.21 ± 1.18	96.38 ± 5.12	–
COC(=O)c1c(C)[nH]c(C)c1C(=O)c1ccccc1Cc1ccccc1 [FPL-64176]	99.43 ± 9.62	78.17 ± 1.90	87.62 ± 2.42	–
O=C1NCN(c2ccccc2)C12CCN(CCCC(c1ccc(F)cc1)c1ccc(F)cc1)CC2 [Fluspirilene]	–	–	–	polyQ degradation (GFP-polyQ-HA; [2]): increased polyQ degradation
COC(=O)[C@@]1(O)C[C@H]2O[C@]1(C)n1c3ccccc3c3c4c(c5c6ccccc6n2c5c31)C(=O)NC4 [K252A]	76.86 ± 6.51	65.58 ± 9.36	70.33 ± 5.89	–
CN(C)C(=O)C(CCN1CCC(O)(c2ccc(Cl)cc2)CC1)(c1ccccc1)c1ccccc1.Cl [Loperamide]	–	–	–	Increase of endogenous LC3 II / LC3 II/LC3 I percentage (LC3 II): increase of endogenous LC3 II
CC[C@H](C)[C@H](NS(=O)(=O)c1ccc2ccccc2c1)C(=O)N[C@H](C=O)Cc1c[nH]c2ccccc12 [NapSul-Ile-Trp-CHO]	89.37 ± 3.52	64.10 ± 11.47	62.34 ± 8.21	–
COC(=O)C1=C(C)NC(C)=C(C(=O)OCCN(C)Cc2ccccc2)C1c1cccc([N+](=O)[O-])c1.Cl (stereo not shown) [Nicardipine]	132.05 ± 19.93	112.51 ± 10.09	104.77 ± 31.63	polyQ degradation (GFP-polyQ-HA; [2]): increased polyQ degradation; Increase of endogenous LC3 II / LC3 II/LC3 I percentage (LC3 II; [1]): increase of endogenous LC3 II; Percent relative degradation of long-lived proteins (%) (long-lived proteins; 1 h): 84.62 ± 4.48%; Percent relative degradation of long-lived proteins (%) (long-lived proteins; 2 h): 126.59 ± 3.83%; Percent relative degradation of long-lived proteins (%) (long-lived proteins; 4 h): 122.60 ± 7.70%; Percent relative degradation of long-lived proteins (%) (long-lived proteins; 24 h): 121.03 ± 13.43%
CO[C@@H]1C[C@@H](C[C@H]2CC[C@H](C)[C@H]([C@@H](C)C(=O)O)O2)O[C@]2(O[C@](C)([C@H]3CC[C@@](C)([C@@H]4O[C@@H]([C@H]5O[C@@](O)(CO)[C@H](C)C[C@@H]5C)C[C@@H]4C)O3)C[C@H]2C)[C@@H]1C [Nigericin]	148.43 ± 5.17	145.40 ± 8.39	140.54 ± 18.21	–
CC(C)(O)[C@H]1O[C@H]2CC[C@@]3(C)[C@@](O)(CC[C@H]4Cc5c([nH]c6ccccc56)[C@@]43C)C2=CC1=O [Paxilline]	100.56 ± 0.58	52.37 ± 1.65	56.82 ± 4.44	–
CCCNCC(O)COc1ccccc1C(=O)CCc1ccccc1 (stereo not shown) [Propafenone]	114.69 ± 8.90	78.75 ± 18.93	62.87 ± 3.38	–
C=C[C@H]1C[N@@]2CC[C@H]1C[C@H]2[C@H](O)c1ccnc2ccc(OC)cc12 [Quinine]	70.35 ± 10.23	78.03 ± 6.33	60.70 ± 6.59	–
CO[C@H]1C[C@@H]2CC[C@@H](C)[C@@](O)(O2)C(=O)C(=O)N2CCCC[C@H]2C(=O)O[C@H]([C@H](C)C[C@@H]2CC[C@@H](O)[C@H](OC)C2)CC(=O)[C@H](C)/C=C(\C)[C@@H](O)[C@@H](OC)C(=O)[C@H](C)C[C@H](C)/C=C/C=C/C=C/1C [Rapamycin]	–	131.41 ± 26.64	–	–
N#Cc1cc2c(OCC(O)CN3CCN(C(c4ccccc4)c4ccccc4)CC3)cccc2[nH]1 (stereo not shown) [SDZ-201106]	65.87 ± 4.72	59.79 ± 2.38	72.40 ± 20.27	–
CCN(CC)CCCCCCCCOC(=O)c1cc(OC)c(OC)c(OC)c1 [TMB-8]	89.59 ± 4.79	74.72 ± 13.74	78.64 ± 10.26	–
CC/C(=C(\c1ccccc1)c1ccc(OCCN(C)C)cc1)c1ccccc1 [Tamoxifen]	77.66 ± 4.43	71.55 ± 0.73	85.37 ± 7.59	–
